Values after ≈ are worked out from the molar mass of the structure shown.
Columns and labels:
HaCaT = assay: Cytotoxicity activity against human HaCaT cells assessed as reduction in cell viability after 72 hrs by MTT assay; type: cell-based
Staphylococcus aureus [1] = assay: Antibacterial activity against Staphylococcus aureus ATCC 25923 after 18 hrs by CLSI disc diffusion method; type: functional; conditions: ATCC 25923, 18 h
Staphylococcus aureus [2] = assay: Antibacterial activity against Staphylococcus aureus ATCC 6538 after 18 hrs by CLSI disc diffusion method; type: functional; conditions: ATCC 6538, 18 h
Pseudomonas aeruginosa [3] = assay: Antibacterial activity against Pseudomonas aeruginosa ATCC 15442 after 18 hrs by CLSI disc diffusion method; type: functional; conditions: ATCC 15442, 18 h
[4] = Selectivity index, ratio of IC50 for human HaCaT cells to MIC for Bordetella bronchiseptica ATCC 4617; type: toxicity; conditions: read-out: Selectivity Index
Micrococcus luteus [5] = assay: Antibacterial activity against Micrococcus luteus ATCC 9341 after 18 hrs by CLSI disc diffusion method; type: functional; conditions: ATCC 9341, 18 h
Enterococcus hirae = assay: Antibacterial activity against Enterococcus hirae ATCC 10541 after 18 hrs by CLSI disc diffusion method; type: functional; conditions: ATCC 10541, 18 h
[6] = Selectivity index, ratio of IC50 for human HaCaT cells to MIC for Enterococcus hirae ATCC 10541; type: toxicity; conditions: read-out: Selectivity Index
[7] = Selectivity index, ratio of IC50 for human HaCaT cells to MIC for Escherichia coli ATCC 10538; type: toxicity; conditions: read-out: Selectivity Index
[8] = Selectivity index, ratio of IC50 for human HaCaT cells to MIC for Micrococcus luteus ATCC 10240; type: toxicity; conditions: read-out: Selectivity Index
[9] = system: Staphylococcus epidermidis; assay: Antibacterial activity against Staphylococcus epidermidis ATCC 12228 after 18 hrs by CLSI disc diffusion method; type: functional; conditions: ATCC 12228, 18 h
[10] = system: Staphylococcus epidermidis; assay: Antibacterial activity against Staphylococcus epidermidis ATCC 35984 after 18 hrs by CLSI […] method; type: functional; conditions: ATCC 35984, 18 h
Bacillus cereus = assay: Antibacterial activity against Bacillus cereus ATCC 11778 after 18 hrs by CLSI disc diffusion method; type: functional; conditions: ATCC 11778, 18 h
[11] = Selectivity index, ratio of IC50 for human HaCaT cells to MIC for Proteus vulgaris NCTC 4635; type: toxicity; conditions: read-out: Selectivity Index
Proteus vulgaris = assay: Antibacterial activity against Proteus vulgaris NCTC 4635 after 18 hrs by CLSI disc diffusion method; type: functional; conditions: NCTC 4635, 18 h
[12] = Selectivity index, ratio of IC50 for human HaCaT cells to MIC for Staphylococcus aureus NCTC 4163; type: toxicity; conditions: read-out: Selectivity Index
Enterococcus faecalis = assay: Antibacterial activity against Enterococcus faecalis ATCC 29212 after 18 hrs by CLSI disc diffusion method; type: functional; conditions: ATCC 29212, 18 h
[13] = system: Bordetella bronchiseptica; assay: Antibacterial activity against Bordetella bronchiseptica ATCC 4617 after 18 hrs by CLSI disc diffusion method; type: functional; conditions: ATCC 4617, 18 h
Micrococcus luteus [14] = assay: Antibacterial activity against Micrococcus luteus ATCC 10240 after 18 hrs by CLSI disc diffusion method; type: functional; conditions: ATCC 10240, 18 h
Escherichia coli = assay: Antibacterial activity against Escherichia coli ATCC 10538 after 18 hrs by CLSI disc diffusion method; type: functional; conditions: ATCC 10538, 18 h
Pseudomonas aeruginosa [15] = assay: Antibacterial activity against Pseudomonas aeruginosa ATCC 27853 after 18 hrs by CLSI disc diffusion method; type: functional; conditions: ATCC 27853, 18 h
[16] = Selectivity index, ratio of IC50 for human HaCaT cells to MIC for Bacillus subtilis ATCC 6633; type: toxicity; conditions: read-out: Selectivity Index
Bacillus spizizenii = assay: Antibacterial activity against Bacillus subtilis ATCC 6633 after 18 hrs by CLSI disc diffusion method; type: functional; conditions: ATCC 6633, 18 h
A549 = assay: Cytotoxicity activity against human A549 cells assessed as reduction in cell viability after 72 hrs by MTT assay; type: cell-based; conditions: A549, 72 h
Staphylococcus aureus [17] = assay: Antibacterial activity against Staphylococcus aureus NCTC 4163 after 18 hrs by CLSI disc diffusion method; type: functional; conditions: NCTC 4163, 18 h

SMILES	MIC (Staphylococcus aureus [1])	MIC (Staphylococcus aureus [2])	MIC (Pseudomonas aeruginosa [3])	MIC (Micrococcus luteus [5])	MIC (Enterococcus hirae)	MIC [9]	MIC [10]	MIC (Bacillus cereus)	MIC (Proteus vulgaris)	MIC (Enterococcus faecalis)	MIC [13]	MIC (Micrococcus luteus [14])	MIC (Escherichia coli)	MIC (Pseudomonas aeruginosa [15])	MIC (Bacillus spizizenii)	MIC (Staphylococcus aureus [17])	IC50 (HaCaT)	IC50 (A549)	other results
O=[N+]([O-])c1cc(-n2nnnc2Nc2nc[nH]n2)ccc1Cl	208 µM (≈ 64 µg/mL)	208 µM (≈ 64 µg/mL)	834 µM (≈ 257 µg/mL)	52 µM (≈ 16 µg/mL)	208 µM (≈ 64 µg/mL)	104 µM (≈ 32 µg/mL)	52 µM (≈ 16 µg/mL)	26 µM (≈ 8 µg/mL)	208 µM (≈ 64 µg/mL)	208 µM (≈ 64 µg/mL)	417 µM (≈ 128 µg/mL)	52 µM (≈ 16 µg/mL)	417 µM (≈ 128 µg/mL)	834 µM (≈ 257 µg/mL)	52 µM (≈ 16 µg/mL)	208 µM (≈ 64 µg/mL)	–	–	–
COc1cccc2c1C(=O)c1c(O)c3c(c(O)c1C2=O)C[C@@](O)(C(=O)CO)C[C@@H]3O[C@H]1C[C@H](N)[C@H](O)[C@H](C)O1 [DOXORUBICIN]	–	–	–	–	–	–	–	–	–	–	–	–	–	–	–	–	1.09 µM	0.63 µM	–
Brc1ccc(-n2nnnc2Nn2cnnc2)cc1	52 µM (≈ 16 µg/mL)	52 µM (≈ 16 µg/mL)	834 µM (≈ 256 µg/mL)	26 µM (≈ 7.98 µg/mL)	52 µM (≈ 16 µg/mL)	26 µM (≈ 7.98 µg/mL)	13 µM (≈ 3.99 µg/mL)	26 µM (≈ 7.98 µg/mL)	13 µM (≈ 3.99 µg/mL)	52 µM (≈ 16 µg/mL)	209 µM (≈ 64.2 µg/mL)	26 µM (≈ 7.98 µg/mL)	52 µM (≈ 16 µg/mL)	834 µM (≈ 256 µg/mL)	26 µM (≈ 7.98 µg/mL)	52 µM (≈ 16 µg/mL)	65 µM	62 µM	selectivity ratio [4]: 0.31; selectivity ratio [6]: 1.25; selectivity ratio [7]: 1.25; selectivity ratio [8]: 2.5; selectivity ratio [11]: 5; selectivity ratio [12]: 1.25; selectivity ratio [16]: 2.5
CCn1nnnc1NCCc1c[nH]c2ccccc12	> 999 µM	> 999 µM	999 µM (≈ 256 µg/mL)	999 µM (≈ 256 µg/mL)	999 µM (≈ 256 µg/mL)	999 µM (≈ 256 µg/mL)	999 µM (≈ 256 µg/mL)	999 µM (≈ 256 µg/mL)	999 µM (≈ 256 µg/mL)	999 µM (≈ 256 µg/mL)	999 µM (≈ 256 µg/mL)	999 µM (≈ 256 µg/mL)	999 µM (≈ 256 µg/mL)	999 µM (≈ 256 µg/mL)	999 µM (≈ 256 µg/mL)	> 999 µM	–	–	–

Continued, in another order:

MIC (Staphylococcus aureus [1])	MIC (Staphylococcus aureus [2])	MIC (Pseudomonas aeruginosa [3])	MIC (Micrococcus luteus [5])	MIC (Enterococcus hirae)	MIC [9]	MIC [10]	MIC (Bacillus cereus)	MIC (Proteus vulgaris)	MIC (Enterococcus faecalis)	MIC [13]	MIC (Micrococcus luteus [14])	MIC (Escherichia coli)	MIC (Pseudomonas aeruginosa [15])	MIC (Bacillus spizizenii)	MIC (Staphylococcus aureus [17])	SMILES	IC50 (HaCaT)	IC50 (A549)	other results
7 µM (≈ 1.91 µg/mL)	7 µM (≈ 1.91 µg/mL)	938 µM (≈ 256 µg/mL)	59 µM (≈ 16.1 µg/mL)	29 µM (≈ 7.92 µg/mL)	4 µM (≈ 1.09 µg/mL)	4 µM (≈ 1.09 µg/mL)	29 µM (≈ 7.92 µg/mL)	117 µM (≈ 32 µg/mL)	234 µM (≈ 63.9 µg/mL)	117 µM (≈ 32 µg/mL)	59 µM (≈ 16.1 µg/mL)	117 µM (≈ 32 µg/mL)	938 µM (≈ 256 µg/mL)	29 µM (≈ 7.92 µg/mL)	7 µM (≈ 1.91 µg/mL)	O=[N+]([O-])c1ccc(-n2nnnc2Nn2cnnc2)cc1	65 µM	60 µM	selectivity ratio [4]: 0.55; selectivity ratio [6]: 2.24; selectivity ratio [7]: 0.55; selectivity ratio [8]: 1.1; selectivity ratio [11]: 0.55; selectivity ratio [12]: 9.28; selectivity ratio [16]: 2.24
12 µM (≈ 3.87 µg/mL)	25 µM (≈ 8.06 µg/mL)	397 µM (≈ 128 µg/mL)	12 µM (≈ 3.87 µg/mL)	25 µM (≈ 8.06 µg/mL)	50 µM (≈ 16.1 µg/mL)	12 µM (≈ 3.87 µg/mL)	6 µM (≈ 1.93 µg/mL)	12 µM (≈ 3.87 µg/mL)	50 µM (≈ 16.1 µg/mL)	12 µM (≈ 3.87 µg/mL)	12 µM (≈ 3.87 µg/mL)	25 µM (≈ 8.06 µg/mL)	397 µM (≈ 128 µg/mL)	12 µM (≈ 3.87 µg/mL)	50 µM (≈ 16.1 µg/mL)	Fc1ccc(-n2nnnc2NCCc2c[nH]c3ccccc23)cc1	–	–	–
15 µM (≈ 4.08 µg/mL)	15 µM (≈ 4.08 µg/mL)	471 µM (≈ 128 µg/mL)	15 µM (≈ 4.08 µg/mL)	29 µM (≈ 7.9 µg/mL)	29 µM (≈ 7.9 µg/mL)	15 µM (≈ 4.08 µg/mL)	7 µM (≈ 1.91 µg/mL)	15 µM (≈ 4.08 µg/mL)	59 µM (≈ 16.1 µg/mL)	29 µM (≈ 7.9 µg/mL)	15 µM (≈ 4.08 µg/mL)	29 µM (≈ 7.9 µg/mL)	471 µM (≈ 128 µg/mL)	15 µM (≈ 4.08 µg/mL)	59 µM (≈ 16.1 µg/mL)	O=C(O)n1nnnc1NCCc1c[nH]c2ccccc12	–	–	–
51 µM (≈ 16 µg/mL)	51 µM (≈ 16 µg/mL)	821 µM (≈ 257 µg/mL)	26 µM (≈ 8.14 µg/mL)	205 µM (≈ 64.2 µg/mL)	51 µM (≈ 16 µg/mL)	26 µM (≈ 8.14 µg/mL)	26 µM (≈ 8.14 µg/mL)	821 µM (≈ 257 µg/mL)	103 µM (≈ 32.3 µg/mL)	410 µM (≈ 128 µg/mL)	51 µM (≈ 16 µg/mL)	821 µM (≈ 257 µg/mL)	821 µM (≈ 257 µg/mL)	6 µM (≈ 1.88 µg/mL)	103 µM (≈ 32.3 µg/mL)	Clc1ccc(-n2nnnc2Nc2nccs2)cc1Cl	–	–	–

— ChEMBL document CHEMBL4152339, “Design and synthesis of novel 1H-tetrazol-5-amine based potent antimicrobial agents: DNA topoisomerase IV and gyrase affinity evaluation supported by molecular docking studies” (Eur J Med Chem, 2018)
